Data published in US20240000872A1, “NOVEL BACTERIOPHAGE THAT LYSES ACINETOBACTER GENUS BACTERIA HAVING RESISTANCE TO ANTIBIOTICS” (priority 2020, published 2024).

System: Acinetobacter baumannii strains
Assay: Antibiotic susceptibility test (CLSI disk diffusion test method, read per CLSI 2016); also: key: ‘S’ means susceptible; ‘I’ means intermediate; ‘R’ means resistant
Format: cell-based

CC(C)(O/N=C(\C(=O)N[C@@H]1C(=O)N2C(C(=O)[O-])=C(C[n+]3ccccc3)CS[C@H]12)c1csc(N)n1)C(=O)O [Ceftazidime, ceftazidime]
R: antibiotic susceptibility S/I/R (host strain YMC16/01/R353) | susceptibility category (S/I/R) (host strain YMC16/01/R353) | antibiotic susceptibility S/I/R (host strain YMC16/01/R380) | susceptibility category (S/I/R) (host strain YMC16/01/R380) | antibiotic susceptibility S/I/R (host strain YMC16/01/R397) | susceptibility category (S/I/R) (host strain YMC16/01/R397) | antibiotic susceptibility S/I/R (host strain YMC16/01/R405) | susceptibility category (S/I/R) (host strain YMC16/01/R405) | antibiotic susceptibility S/I/R (host strain YMC16/03/R4461) | susceptibility category (S/I/R) (host strain YMC16/03/R4461) | antibiotic susceptibility S/I/R (host strain YMC16/05/R2210) | susceptibility category (S/I/R) (host strain YMC16/05/R2210) | antibiotic susceptibility S/I/R (host strain YMC16/07/R2512) | susceptibility category (S/I/R) (host strain YMC16/07/R2512) | antibiotic susceptibility S/I/R (host strain YMC16/09/R2471) | susceptibility category (S/I/R) (host strain YMC16/09/R2471) | antibiotic susceptibility S/I/R (host strain YMC16/10/R2537) | susceptibility category (S/I/R) (host strain YMC16/10/R2537) | antibiotic susceptibility S/I/R (host strain YMC16/12/B11422) | susceptibility category (S/I/R) (host strain YMC16/12/B11422) | antibiotic susceptibility S/I/R (host strain YMC16/12/B11449) | susceptibility category (S/I/R) (host strain YMC16/12/B11449) | antibiotic susceptibility S/I/R (host strain YMC16/12/B13325) | susceptibility category (S/I/R) (host strain YMC16/12/B13325) | antibiotic susceptibility S/I/R (host strain YMC16/12/P503) | susceptibility category (S/I/R) (host strain YMC16/12/P503) | antibiotic susceptibility S/I/R (host strain YMC16/12/R4637) | susceptibility category (S/I/R) (host strain YMC16/12/R4637) | antibiotic susceptibility S/I/R (host strain YMC17/01/B8053) | susceptibility category (S/I/R) (host strain YMC17/01/B8053) | antibiotic susceptibility S/I/R (host strain YMC17/01/B10087) | susceptibility category (S/I/R) (host strain YMC17/01/B10087) | antibiotic susceptibility S/I/R (host strain YMC17/01/B12075) | susceptibility category (S/I/R) (host strain YMC17/01/B12075) | antibiotic susceptibility S/I/R (host strain YMC17/01/B13454) | susceptibility category (S/I/R) (host strain YMC17/01/B13454) | antibiotic susceptibility S/I/R (host strain YMC17/01/P518) | susceptibility category (S/I/R) (host strain YMC17/01/P518) | antibiotic susceptibility S/I/R (host strain YMC17/01/R2812) | susceptibility category (S/I/R) (host strain YMC17/01/R2812) | antibiotic susceptibility S/I/R (host strain YMC17/02/B14) | susceptibility category (S/I/R) (host strain YMC17/02/B14) | antibiotic susceptibility S/I/R (host strain YMC17/02/B87) | susceptibility category (S/I/R) (host strain YMC17/02/B87) | antibiotic susceptibility S/I/R (host strain YMC17/02/B721) | susceptibility category (S/I/R) (host strain YMC17/02/B721) | antibiotic susceptibility S/I/R (host strain YMC17/02/B4039) | susceptibility category (S/I/R) (host strain YMC17/02/B4039) | antibiotic susceptibility S/I/R (host strain YMC17/02/B4520) | susceptibility category (S/I/R) (host strain YMC17/02/B4520) | antibiotic susceptibility S/I/R (host strain YMC17/02/B8414) | susceptibility category (S/I/R) (host strain YMC17/02/B8414) | antibiotic susceptibility S/I/R (host strain YMC17/02/P523) | susceptibility category (S/I/R) (host strain YMC17/02/P523) | antibiotic susceptibility S/I/R (host strain YMC17/02/R541) | susceptibility category (S/I/R) (host strain YMC17/02/R541) | antibiotic susceptibility S/I/R (host strain YMC17/02/R2392) | susceptibility category (S/I/R) (host strain YMC17/02/R2392) | antibiotic susceptibility S/I/R (host strain YMC17/03/B4730) | susceptibility category (S/I/R) (host strain YMC17/03/B4730) | antibiotic susceptibility S/I/R (host strain YMC17/03/B5000) | susceptibility category (S/I/R) (host strain YMC17/03/B5000) | antibiotic susceptibility S/I/R (host strain YMC17/03/P971) | susceptibility category (S/I/R) (host strain YMC17/03/P971) | antibiotic susceptibility S/I/R (host strain YMC17/03/R348) | susceptibility category (S/I/R) (host strain YMC17/03/R348) | antibiotic susceptibility S/I/R (host strain YMC17/03/R585) | susceptibility category (S/I/R) (host strain YMC17/03/R585) | antibiotic susceptibility S/I/R (host strain YMC17/03/R1888) | susceptibility category (S/I/R) (host strain YMC17/03/R1888) | antibiotic susceptibility S/I/R (host strain YMC17/03/R3279) | susceptibility category (S/I/R) (host strain YMC17/03/R3279) | antibiotic susceptibility S/I/R (host strain YMC17/03/R4077) | susceptibility category (S/I/R) (host strain YMC17/03/R4077) | antibiotic susceptibility S/I/R (host strain YMC17/03/R4607) | susceptibility category (S/I/R) (host strain YMC17/03/R4607) | antibiotic susceptibility S/I/R (host strain YMC17/04/R488) | susceptibility category (S/I/R) (host strain YMC17/04/R488) | antibiotic susceptibility S/I/R (host strain YMC17/04/R640) | susceptibility category (S/I/R) (host strain YMC17/04/R640) | antibiotic susceptibility S/I/R (host strain YMC/17/05/R1095) | susceptibility category (S/I/R) (host strain YMC/17/05/R1095)
S: antibiotic susceptibility S/I/R (host strain YMC17/02/B4864) | susceptibility category (S/I/R) (host strain YMC17/02/B4864)
